Measured values taken from patent US20240156982A1, “METHOD OF FORMING PEPTIDE-COATED NANOPARTICLES” (Research Foundation of the City University of New York, priority 2022, published 2024).
pIC50: −log10 of the molar value.

Experiments:
[1] = cited from earlier work
[2] = test system: HUVEC; assay: MTT viability assay; type: cell-based, human
Method: (§1) FIG. 8 depicts a series of graphs showing in vitro viability with RGDFFF (SEQ ID NO: 1)-CA4 NP. Each column represents the mean and standard deviation of N=3 and p<0.005 (HUVEC, OVCAR-3), p<0.04 (TOV-21G, OV-90), p<0.03 (CP70), p<0.02 (A2780), p<0.01 (ES-2), p<0.12 (SKOV-3).
(§2) The biological activity of RGDFFF (SEQ ID NO: 1)-CA4 NPs in cell culture was also evaluated. As determined by HPLC, the CA4 drug payload in the NP was 0.2 wt. %. First, IC50 values were established for the NPs in all cells and subsequently performed MTT viability assays in HUVEC and OvCA cells using the respective IC50 values. The RGDFFF-CA4 NPs were compared to cells only without treatment, free CA4, and empty RGDFFF (SEQ ID NO: 1)-NPs without CA4, as shown in FIG. 8. […] Optical microscopy was used to examine the morphological changes in the cells after incubation with RGDFFF (SEQ ID NO: 1)-CA4 NP. This was done since CA4 is a microtubule depolymerizing agent that disrupts internal cell architecture.

[3] = test system: OV-90; assay: MTT viability assay; type: cell-based
Method: as §1, §2

[4] = test system: CP70; assay: MTT viability assay; type: cell-based
Method: as §1, §2

[5] = test system: A2780; assay: MTT viability assay; type: cell-based
Method: as §1, §2

[6] = test system: TOV-21G; assay: MTT viability assay; type: cell-based
Method: as §1, §2

[7] = test system: OVCAR-3; assay: MTT viability assay; type: cell-based
Method: as §1, §2

[8] = test system: SKOV-3; assay: MTT viability assay; type: cell-based
Method: as §1, §2

[9] = test system: ES-2; assay: MTT viability assay; type: cell-based
Method: as §1, §2

Compound: COc1ccc(/C=C\c2cc(OC)c(OC)c(OC)c2)cc1O [CA4, combretastatin A4]
- solubility in water [1]: not soluble in water
- pIC50 [2]: 8.70
- pIC50 [3]: 7.00
- pIC50 [4]: 8.40
- pIC50 [5]: 8.30
- pIC50 [6]: 7.60
- pIC50 [7]: 8.60
- pIC50 [8]: 8.00
- pIC50 [9]: 8.30
